“And” between values parts separate entries of the source, which are not always exact repeats. Equal entries are not always repeated.
What was measured:
[1] = baseline ALT 27–45 IU/mL; cited from earlier work
HBV in HepG2.2.15 cell = settings: cited from earlier work
[2] = Phase Ia tolerability in healthy subjects; assay type: in vivo, human; settings: 9 days, unpublished observations
[3] = Phase Ia pharmacokinetics of GLS4 in healthy subjects; assay type: in vivo, human; settings: for mean steady-state Cmin: unpublished observations
HBV [4] = test: Change in serum HBeAg, phase 1b study in patients with chronic HBV infection; assay type: in vivo, human
[5] = Safety and tolerability in patients with chronic HBV infection; assay type: in vivo, human; settings: for effect of silibinin and glutathione treatment on ALT flares: subjects with ALT flares, decline in ALT level
HBV [6] = test: Change in serum HBsAg, phase 1b study in patients with chronic HBV infection; assay type: in vivo, human
HBV [7] = test system: HBV
HBV [8] = test: Change in serum HBcrAg, phase 1b study in patients with chronic HBV infection; assay type: in vivo, human
HBV [9] = test: Change in serum HBV DNA, phase 1b study in patients with chronic HBV infection; assay type: in vivo, human
[10] = preclinical study in dogs; cited from earlier work
HBV [11] = test: Change in serum HBV pgRNA, phase 1b study in patients with chronic HBV infection; assay type: in vivo, human
[12] = Plasma pharmacokinetics of GLS4 in patients with chronic HBV infection; assay type: in vivo, human; settings: for AUC0–24 / AUC0–t / Cmax / Ctrough / t1/2 / Df (degree of fluctuation): mean (CV)
HBV [13] = settings: after NVR 3–778 treatment; cited from earlier work
HBV [14] = settings: cited from earlier work
[15] = cohort A: GLS4 120 mg/day + ritonavir 100 mg/day
[16] = cohort B: GLS4 240 mg/day + ritonavir 100 mg/day
[17] = cohort A: GLS4 120 mg/day + ritonavir 100 mg/day, n=8
[18] = cohort B: GLS4 240 mg/day + ritonavir 100 mg/day, n=8
[19] = cohort A (GLS4 120 mg/day + ritonavir 100 mg/day), Day 1 (24 Hours)
[20] = cohort A (GLS4 120 mg/day + ritonavir 100 mg/day), Day 28 (24 Hours)
[21] = cohort A (GLS4 120 mg/day + ritonavir 100 mg/day), Day 28 (120 Hours)
[22] = cohort B (GLS4 240 mg/day + ritonavir 100 mg/day), Day 1 (24 Hours)
[23] = cohort B (GLS4 240 mg/day + ritonavir 100 mg/day), Day 28 (24 Hours)
[24] = cohort B (GLS4 240 mg/day + ritonavir 100 mg/day), Day 28 (120 Hours)
[25] = cohort C: entecavir 0.5 mg/day, n=8

Question: Which “ALT flare in phase I clinical study” value [1] does the source give for O=C(NCc1cnc(C(F)(F)F)s1)c1ccc2c(c1)NC(=O)c1ccccc1S2(=O)=O [ABI-H0731] here?
Answer: without ALT flare

Question: For CCOC(=O)C1=C(CN2CCOCC2)NC(c2nccs2)=NC1c1ccc(F)cc1Br (centres unmarked) [GLS4], which “90% effective concentration (EC90)” value (HBV in HepG2.2.15 cell; HepG2.2.15 cell, after correction with Human plasma protein binding) is on record?
Answer: 0.0558 µg/mL

Question: And the “anti-HBV activity in vitro compared with Bay 41–4109” value (HBV in HepG2.2.15 cell; in vitro)?
Answer: better anti-HBV activity in vitro than Bay 41–4109

Question: What about the “tolerability of GLS4 (120 or 240 mg) in combination with 100 mg ritonavir” value [2] of the same compound?
Answer: tolerated

Question: What about the “mean steady-state Cmin” value ([3]; GLS4 120 mg/day + ritonavir 100 mg/day for 9 days) of the same compound?
Answer: 187.9 ng/mL

Question: And the “mean steady-state Cmin” value ([3]; GLS4 240 mg/day + ritonavir 100 mg/day for 9 days)?
Answer: 300.7 ng/mL

Question: And the “t1/2 of GLS4 monotherapy” value ([3]; without ritonavir, data not shown)?
Answer: 1.09 to 15.8 h

Question: What about the “mean decline in HBeAg after 28 days of treatment” value (HBV [4]; [15]) of the same compound?
Answer: −0.25 log10 IU/mL

Question: What about the “mean decline in HBeAg after 28 days of treatment” value (HBV [4]; [16]) of the same compound?
Answer: −0.30 log10 IU/mL

Question: And the “tolerability in patients with chronic HBV infection” value ([5]; 120 mg GLS4 (+ ritonavir 100 mg), 28 days)?
Answer: tolerated

Question: What about the “frequency of grade 3–4 adverse reactions” value [5, 17] of the same compound?
Answer: 2

Question: And the “patients who experienced an adverse reaction” value [5, 17]?
Answer: 5

Question: What about the “patients withdrawn due to ALT flare” value [5, 17] of the same compound?
Answer: 1 and 1/8

Question: And the “subjects with alanine aminotransferase flare” value (shortened to “subjects”) [5, 17]?
Answer: 2 and 2/8

Question: And the “frequency of grade 3–4 adverse reactions” value [5, 18]?
Answer: 7

Question: What about the “patients who experienced an adverse reaction” value [5, 18] of the same compound?
Answer: 6

Question: What about the “patients withdrawn due to ALT flare” value [5, 18] of the same compound?
Answer: 2 and 2/8

Question: And the “presence of SAEs” value [5, 18]?
Answer: 1

Question: What about the “subjects” value [5, 18] of the same compound?
Answer: 3 and 3/8

Question: And the “mean decline in HBsAg after 28 days of treatment” value (HBV [6]; [15])?
Answer: −0.06 log10 IU/mL

Question: What about the “mean decline in HBsAg after 28 days of treatment” value (HBV [6]; [16]) of the same compound?
Answer: −0.14 log10 IU/mL

Question: What about the “efficacy in patients resistant to lamivudine or adefovir dipivoxil treatment” value (HBV [7]; cohort A: patient 013, cohort B: patient 020) of the same compound?
Answer: effective

Question: And the “GLS4 resistance among patients” value (HBV [7]; cohorts A and B, 28 days of treatment)?
Answer: not observed

Question: What about the “mean decline in HBcrAg after 28 days of treatment” value (from here on “mean decline in HBcrAg”) (HBV [8]; [15]) of the same compound?
Answer: −0.23 log10 U/mL

Question: And the “mean decline in HBcrAg” value (HBV [8]; [16])?
Answer: −0.5 log10 U/mL and −0.50 log10 U/mL

Question: And the “decline in HBV DNA levels in patients with poor response” value (HBV [9]; cohort A (GLS4 120 mg/day + ritonavir 100 mg/day), patients 003, 005 and 022)?
Answer: < 0.5 log10 IU/mL

Question: And the “mean decline in HBV DNA after 28 days of treatment” value (“mean decline in HBV DNA” for short) (HBV [9]; [15])?
Answer: −1.42 log10 IU/mL

Question: What about the “mean decline in HBV DNA” value (HBV [9]; [16]) of the same compound?
Answer: −2.13 log10 IU/mL

Question: What about the “mean change in HBV DNA following GLS4 treatment” value (HBV [9]; cohorts A and B (GLS4 120 or 240 mg/day + ritonavir 100 mg/day, 28 days)) of the same compound?
Answer: −1.42 to −2.13 log10 IU/mL

Question: What about the tolerability [10] of the same compound?
Answer: well tolerated

Question: And the “mean decline in pgRNA after 28 days of treatment” value (from here on “mean decline in pgRNA”) (HBV [11]; [15])?
Answer: −0.75 log10 copies/mL

Question: What about the “mean decline in pgRNA” value (HBV [11]; [16]) of the same compound?
Answer: −1.78 log10 copies/mL

Question: What about the “Median Tmax (minimum–maximum)” value [12, 19] of the same compound?
Answer: 3 (1.5,4) hours

Question: What about the “AUC0–24” value [12, 19] of the same compound?
Answer: 4268 (27) ng × hours/mL

Question: What about the “AUC0–t” value [12, 19] of the same compound?
Answer: 4268 (27) ng × hours/mL

Question: And the Cmax [12, 19]?
Answer: 885 (27) ng/mL

Question: What about the “Median Tmax (minimum–maximum)” value [12, 20] of the same compound?
Answer: 3 (0.5, 4) hours

Question: And the “AUC0–24” value [12, 20]?
Answer: 7871 (56) ng × hours/mL

Question: And the “AUC0–t” value [12, 20]?
Answer: 7871(56) ng × hours/mL

Question: What about the Cmax [12, 20] of the same compound?
Answer: 865 (66) ng/mL

Question: What about the Ctrough [12, 20] of the same compound?
Answer: 218(59) ng/mL

Question: And the t1/2 [12, 20]?
Answer: 32.1(11.7) hours

Question: What about the “Median Tmax (minimum–maximum)” value [12, 21] of the same compound?
Answer: 3 (0.5, 4) hours

Question: And the “AUC0–24” value [12, 21]?
Answer: 7871 (56) ng × hours/mL

Question: And the Cmax [12, 21]?
Answer: 865 (66) ng/mL

Question: And the “Df (degree of fluctuation)” value [12, 21]?
Answer: 204 (36) %

Question: And the t1/2 [12, 21]?
Answer: 64.2 (14.8) hours

Question: And the “Median Tmax (minimum–maximum)” value [12, 22]?
Answer: 3.5 (2, 4) hours

Question: What about the “AUC0–24” value [12, 22] of the same compound?
Answer: 8055 (34) ng × hours/mL

Question: And the “AUC0–t” value [12, 22]?
Answer: 8055 (34) ng × hours/mL

Question: What about the Cmax [12, 22] of the same compound?
Answer: 1447 (39) ng/mL

Question: And the t1/2 [12, 22]?
Answer: 10.6 (3.3) hours

Question: What about the “Median Tmax (minimum–maximum)” value [12, 23] of the same compound?
Answer: 3 (2, 4) hours

Question: And the Cmax [12, 23]?
Answer: 1461 (24) ng/mL

Question: And the Ctrough [12, 23]?
Answer: 205(63) ng/mL

Question: What about the t1/2 [12, 23] of the same compound?
Answer: 16.3(7.6) hours

Question: What about the “Median Tmax (minimum–maximum)” value [12, 24] of the same compound?
Answer: 3 (2, 4) hours

Question: What about the Cmax [12, 24] of the same compound?
Answer: 1461 (24) ng/mL

Question: What about the “Df (degree of fluctuation)” value [12, 24] of the same compound?
Answer: 265 (33) %

Question: And the t1/2 [12, 24]?
Answer: 67.3 (24.2) hours

Question: What about the “accumulation rate with AUC0–24 (day 28 vs day 1)” value ([12]; cohorts A and B) of the same compound?
Answer: 1.6–2.0

Question: What about the “accumulation rate with Cmax (day 28 vs day 1)” value ([12]; cohorts A and B) of the same compound?
Answer: 1.1–1.2

Question: And the accumulation rate ([12]; cohorts A and B, day 28 vs day 1, AUC0–24 or Cmax)?
Answer: 1.1–2.0

Question: What about the “time to maximum GLS4 concentration (Tmax)” value ([12]; cohorts A and B, first and last dose (days 1 and 28), with ritonavir) of the same compound?
Answer: 3–3.5 hours and ~ 3 hours

Question: And the “mean trough concentration (Ctrough) of GLS4” value ([12]; cohorts A and B, steady state, with ritonavir 100 mg/day)?
Answer: 205 to 218 ng/mL

Question: What about the “t1/2 of GLS4 when combined with ritonavir” value ([12]; patients, cohorts A and B) of the same compound?
Answer: 64.2 to 67.3 h

Question: Which results are given for O=C(Nc1cc(F)c(F)c(F)c1)c1ccc(F)c(S(=O)(=O)N2CCC(O)CC2)c1 [NVR 3–778]?
Answer: mean change in HBV DNA (HBV [13]): −1.43 log10 IU/mL; mean decline in HBeAg (HBV [13]): −0.09 log10 IU/mL; mean decline in HBsAg (HBV [13]): −0.02 log10 IU/mL

Question: For C=C1[C@H](CO)[C@@H](O)C[C@@H]1n1cnc2c(=O)[nH]c(N)nc21 [entecavir, reference compound], which “patients who experienced an adverse reaction” value [5, 25] is on record?
Answer: 7

Question: And the “patients withdrawn due to ALT flare” value [5, 25]?
Answer: 1

Question: What about the “subjects” value [5, 25] of the same compound?
Answer: 3

Question: What about the “mean decline in HBsAg after 28 days of treatment” value (HBV [6]; cohort C: entecavir 0.5 mg/day) of the same compound?
Answer: −0.33 log10 IU/mL

Question: What about the “mean decline in HBcrAg” value (HBV [8]; cohort C: entecavir 0.5 mg/day) of the same compound?
Answer: −0.44 log10 U/mL

Question: And the “mean decline in HBV DNA” value (HBV [9]; cohort C: entecavir 0.5 mg/day)?
Answer: −3.5 log10 IU/mL

Question: What about the “mean decline in pgRNA” value (HBV [11]; cohort C: entecavir 0.5 mg/day) of the same compound?
Answer: −0.96 log10 copies/mL

Question: Which “effect of silibinin and glutathione treatment on ALT flares” value [5] does the source give for N[C@@H](CCC(=O)N[C@@H](CS)C(=O)NCC(=O)O)C(=O)O [glutathione, reference compound] here?
Answer: effective in reducing ALT flares

Question: And the antiviral effects (HBV [14])?
Answer: no antiviral effects

Question: For COc1cc(C2Oc3cc([C@H]4Oc5cc(O)cc(O)c5C(=O)[C@@H]4O)ccc3OC2CO)ccc1O (some centres unmarked) [silibinin, reference compound], which “effect of silibinin and glutathione treatment on ALT flares” value [5] is on record?
Answer: effective in reducing ALT flares

Question: And the antiviral effects (HBV [14])?
Answer: no antiviral effects
